Measured values published in ChEMBL document CHEMBL6115025, “Discovery of Novel, Potent, Orally Bioavailable and Efficacious, Hypoxia-Inducible Factor Prolyl Hydroxylase Inhibitors for Hematopoietic Stem Cell Mobilization” (J Med Chem, 2025).

Legend:
Egl nine homolog 1 = Egl nine homolog 1 (Homo sapiens, UniProt Q9GZT9); assay: Inhibition of PHD2 (unknown origin) using [1-14C]alphaKG as substrate assessed as substrate decarboxylation by measuring 14CO2 production incubated for 2 hrs by microplate reader analysis
Chain of Egl nine homolog 1 (Q9GZT9 whole entry): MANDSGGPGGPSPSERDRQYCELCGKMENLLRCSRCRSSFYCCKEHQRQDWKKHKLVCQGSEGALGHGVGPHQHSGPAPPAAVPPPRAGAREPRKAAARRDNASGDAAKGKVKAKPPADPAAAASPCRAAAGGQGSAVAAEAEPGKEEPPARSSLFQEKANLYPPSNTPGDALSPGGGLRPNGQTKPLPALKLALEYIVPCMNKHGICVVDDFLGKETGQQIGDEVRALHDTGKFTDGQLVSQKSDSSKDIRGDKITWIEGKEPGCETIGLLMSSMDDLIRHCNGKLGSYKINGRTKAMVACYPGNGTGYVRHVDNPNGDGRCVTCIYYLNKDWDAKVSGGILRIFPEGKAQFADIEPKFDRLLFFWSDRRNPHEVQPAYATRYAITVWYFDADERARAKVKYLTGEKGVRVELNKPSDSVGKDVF

[1] = biological target: Voltage-gated inwardly rectifying potassium channel KCNH2 (Homo sapiens, UniProt Q12809); assay: Inhibition of human ERG upto 100 uM; type: toxicity
Chain of Voltage-gated inwardly rectifying potassium channel KCNH2 (Q12809 whole entry): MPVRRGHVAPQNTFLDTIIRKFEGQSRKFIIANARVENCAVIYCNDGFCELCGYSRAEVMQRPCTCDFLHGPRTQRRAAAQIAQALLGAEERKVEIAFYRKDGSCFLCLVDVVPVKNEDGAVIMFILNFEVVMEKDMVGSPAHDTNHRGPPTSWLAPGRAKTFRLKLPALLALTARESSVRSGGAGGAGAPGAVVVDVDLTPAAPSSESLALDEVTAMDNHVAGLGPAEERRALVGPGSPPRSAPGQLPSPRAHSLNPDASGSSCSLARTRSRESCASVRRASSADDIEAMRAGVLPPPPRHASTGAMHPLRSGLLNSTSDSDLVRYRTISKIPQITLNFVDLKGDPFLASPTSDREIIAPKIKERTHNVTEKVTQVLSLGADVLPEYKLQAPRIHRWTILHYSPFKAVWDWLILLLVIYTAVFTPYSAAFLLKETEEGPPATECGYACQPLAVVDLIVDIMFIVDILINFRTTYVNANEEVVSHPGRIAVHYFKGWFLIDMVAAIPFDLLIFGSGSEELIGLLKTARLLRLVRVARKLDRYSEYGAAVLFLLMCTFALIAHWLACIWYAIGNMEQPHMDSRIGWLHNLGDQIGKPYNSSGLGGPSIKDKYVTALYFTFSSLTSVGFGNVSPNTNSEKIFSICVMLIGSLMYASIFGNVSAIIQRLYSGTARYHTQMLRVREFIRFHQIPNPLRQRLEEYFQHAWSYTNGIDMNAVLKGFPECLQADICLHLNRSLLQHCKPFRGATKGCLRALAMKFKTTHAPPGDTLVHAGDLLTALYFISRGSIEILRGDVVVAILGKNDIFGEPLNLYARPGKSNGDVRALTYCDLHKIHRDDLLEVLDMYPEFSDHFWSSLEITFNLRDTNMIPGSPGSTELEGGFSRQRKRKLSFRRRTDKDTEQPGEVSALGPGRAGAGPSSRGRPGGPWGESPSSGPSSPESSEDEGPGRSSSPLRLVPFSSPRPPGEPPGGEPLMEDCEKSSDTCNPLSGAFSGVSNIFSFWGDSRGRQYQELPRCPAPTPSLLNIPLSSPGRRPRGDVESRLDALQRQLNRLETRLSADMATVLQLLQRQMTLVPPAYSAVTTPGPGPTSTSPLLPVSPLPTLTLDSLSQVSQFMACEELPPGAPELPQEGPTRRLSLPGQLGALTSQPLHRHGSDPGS

Row | Structure (SMILES) | IC50 (Egl nine homolog 1) [nM] | inhibition (INH) [1]
1 | O=C(NCc1ccncc1)c1ncc2c(=O)n(Cc3ccccc3)ccc2c1O | 200 | 
2 | O=C(NCc1ccnnc1)c1ncc2c(=O)n(C3CCCCC3)ccc2c1O |  | Not_active
